From PubChem BioAssay AID328 (DTP/NCI, 2004)
“And” between values parts separate entries of the source, which are not always exact repeats. Equal values may be shown once. Toxic doses and inconclusive results are not listed.

Tested on: BDF1 mice, P388 leukemia ip, median survival T/C
Test: NCI In Vivo Anticancer Drug Screen. Data for tumor model P388 Leukemia (intraperitoneal) in B6D2F1 (BDF1) mice
Details: endpoint: median survival time, higher = longer survival
Procedure, shortened: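 Reported as T/C, where T is the survival measurement in dosed animals and C the same measurement in vehicle controls.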

[1] = dose: 200.0 mg/kg/injection, schedule: Q01DX009 (ip), vehicle: Klucel (hydroxypropylcellulose) (HPC)
[2] = dose: 50.0 mg/kg/injection, schedule: Q04DX003 (ip), vehicle: saline with Tween-80
[3] = dose: 50.0 mg/kg/injection, schedule: Q01DX005 (ip), vehicle: saline with Tween-80
[4] = dose: 100.0 mg/kg/injection, schedule: Q01DX005 (ip), vehicle: saline with Tween-80
[5] = dose: 200.0 mg/kg/injection, schedule: Q01DX005 (ip), vehicle: saline with Tween-80
[6] = dose: 50.0 mg/kg/injection, schedule: Q01DX009 (ip), vehicle: saline with Tween-80
[7] = dose: 100.0 mg/kg/injection, schedule: Q01DX009 (ip), vehicle: saline with Tween-80
[8] = dose: 100.0 mg/kg/injection, schedule: Q04DX003 (ip), vehicle: saline with Tween-80

SMILES: COC(=O)C(c1ccccc1)C(Br)C(=O)c1ccccc1 (centres undefined)
- T/C (dose: 100.0 mg/kg/injection, schedule: Q04DX003 (ip), vehicle: Klucel (hydroxypropylcellulose) (HPC)): 100 % of control
- T/C [1]: 88 % of control
- T/C (dose: 200.0 mg/kg/injection, schedule: Q04DX003 (ip), vehicle: Klucel (hydroxypropylcellulose) (HPC)): 104 % of control
- T/C (dose: 400.0 mg/kg/injection, schedule: Q04DX003 (ip), vehicle: Klucel (hydroxypropylcellulose) (HPC)): 90 % of control

SMILES: C=C(C)C12OC3(c4ccccc4)OC1C1C4OC4(CO)C(O)C4(O)C(=O)C(C)=CC4C1(O3)C(C)C2OC(=O)/C=C/c1ccccc1 (centres undefined)
- T/C (dose: 6.3 micrograms/kg/injection, schedule: Q## X009 (ip), vehicle: saline + alcohol): 114 % of control
- T/C (dose: 12.5 micrograms/kg/injection, schedule: Q## X009 (ip), vehicle: saline + alcohol): 110 % of control
- T/C (dose: 25.0 micrograms/kg/injection, schedule: Q## X009 (ip), vehicle: saline + alcohol): 118 % of control
- T/C (dose: 50.0 micrograms/kg/injection, schedule: Q## X009 (ip), vehicle: saline + alcohol): 109 % of control
- T/C (dose: 100.0 micrograms/kg/injection, schedule: Q## X009 (ip), vehicle: saline + alcohol): 159 % of control
- T/C (dose: 200.0 micrograms/kg/injection, schedule: Q## X009 (ip), vehicle: saline + alcohol): 173 % of control

SMILES: COc1cc2c(cc1OC)C(OC)N(C)c1c-2ccc2cc3c(cc12)OCO3 (centres undefined)
- T/C (dose: 1.1 mg/kg/injection, schedule: Q01DX009 (ip), vehicle: water): 118 % of control
- T/C (dose: 1.4 mg/kg/injection, schedule: Q04DX003 (ip), vehicle: saline with Tween-80): 122 % of control
- T/C (dose: 1.46 mg/kg/injection, schedule: Q01DX009 (ip), vehicle: saline with Tween-80): 160 % of control
- T/C (dose: 2.2 mg/kg/injection, schedule: Q01DX009 (ip), vehicle: saline with Tween-80): 151 % of control
- T/C (dose: 2.5 mg/kg/injection, schedule: Q01DX009 (ip), vehicle: water): 181 % of control
- T/C (dose: 3.3 mg/kg/injection, schedule: Q01DX009 (ip), vehicle: saline with Tween-80): 169 % of control
- T/C (dose: 4.4 mg/kg/injection, schedule: Q01DX009 (ip), vehicle: saline with Tween-80): 167 % of control
- T/C (dose: 5.0 mg/kg/injection, schedule: Q01DX009 (ip), vehicle: saline with Tween-80): 176 % of control
- T/C (dose: 5.0 mg/kg/injection, schedule: Q01DX009 (ip), vehicle: water): 159 % of control and 190 % of control
- T/C (dose: 5.0 mg/kg/injection, schedule: Q04DX003 (ip), vehicle: saline with Tween-80): 150 % of control
- T/C (dose: 6.6 mg/kg/injection, schedule: Q01DX009 (ip), vehicle: saline with Tween-80): 216 % of control
- T/C (dose: 10.0 mg/kg/injection, schedule: Q01DX009 (ip), vehicle: saline with Tween-80): 191 % of control and 218 % of control
- T/C (dose: 10.0 mg/kg/injection, schedule: Q01DX009 (ip), vehicle: saline): 170 % of control
- T/C (dose: 10.0 mg/kg/injection, schedule: Q01DX009 (ip), vehicle: water): 177 % of control and 200 % of control
- T/C (dose: 10.0 mg/kg/injection, schedule: Q04DX003 (ip), vehicle: other): 163 % of control
- T/C (dose: 14.6 mg/kg/injection, schedule: Q04DX003 (ip), vehicle: saline with Tween-80): 168 % of control
- T/C (dose: 15.0 mg/kg/injection, schedule: Q01DX009 (ip), vehicle: saline with Tween-80): 188 % of control
- T/C (dose: 15.0 mg/kg/injection, schedule: Q04DX003 (ip), vehicle: other): 200 % of control
- T/C (dose: 20.0 mg/kg/injection, schedule: Q01DX009 (ip), vehicle: saline with Tween-80): 220 % of control and 165 % of control
- T/C (dose: 20.0 mg/kg/injection, schedule: Q01DX009 (ip), vehicle: saline): 195 % of control
- T/C (dose: 20.0 mg/kg/injection, schedule: Q01DX009 (ip), vehicle: water): 195 % of control and 220 % of control
- T/C (dose: 20.0 mg/kg/injection, schedule: Q04DX003 (ip), vehicle: saline): 165 % of control
- T/C (dose: 22.0 mg/kg/injection, schedule: Q04DX003 (ip), vehicle: saline with Tween-80): 168 % of control
- T/C (dose: 33.0 mg/kg/injection, schedule: Q04DX003 (ip), vehicle: saline with Tween-80): 263 % of control
- T/C (dose: 40.0 mg/kg/injection, schedule: Q01DX009 (ip), vehicle: saline with Tween-80): 160 % of control and 175 % of control
- T/C (dose: 40.0 mg/kg/injection, schedule: Q01DX009 (ip), vehicle: saline): 195 % of control
- T/C (dose: 40.0 mg/kg/injection, schedule: Q01DX009 (ip), vehicle: water): 186 % of control and 200 % of control
- T/C (dose: 40.0 mg/kg/injection, schedule: Q04DX003 (ip), vehicle: saline): 170 % of control
- T/C (dose: 50.0 mg/kg/injection, schedule: Q01DX009 (ip), vehicle: Klucel (hydroxypropylcellulose) (HPC)): 205 % of control
- T/C (dose: 50.0 mg/kg/injection, schedule: Q04DX002 (ip), vehicle: Klucel (hydroxypropylcellulose) (HPC)): 106 % of control
- T/C [2]: 231 % of control
- T/C (dose: 52.0 mg/kg/injection, schedule: Q01DX009 (ip), vehicle: saline with Tween-80): 181 % of control
- T/C (dose: 80.0 mg/kg/injection, schedule: Q01DX009 (ip), vehicle: saline): 180 % of control
- T/C (dose: 80.0 mg/kg/injection, schedule: Q01DX009 (ip), vehicle: water): 109 % of control
- T/C (dose: 80.0 mg/kg/injection, schedule: Q04DX003 (ip), vehicle: saline): 180 % of control
- T/C (dose: 100.0 mg/kg/injection, schedule: Q04DX002 (ip), vehicle: Klucel (hydroxypropylcellulose) (HPC)): 172 % of control
- T/C (dose: 120.0 mg/kg/injection, schedule: Q01DX009 (ip), vehicle: water): 113 % of control
- T/C (dose: 180.0 mg/kg/injection, schedule: Q01DX009 (ip), vehicle: saline with Tween-80): 104 % of control
- T/C [1]: 200 % of control
- T/C (dose: 400.0 mg/kg/injection, schedule: Q04DX002 (ip), vehicle: Klucel (hydroxypropylcellulose) (HPC)): 190 % of control

SMILES: CC(=O)C(C(C)=O)C(Cl)C(C(C)=O)C(C)=O
- T/C [3]: 99 % of control
- T/C [4]: 92 % of control
- T/C [5]: 99 % of control

SMILES: CCCCCCCCCCOP(N)(=O)OCCCCCCCCCC
- T/C (dose: 25.0 mg/kg/injection, schedule: Q04DX003 (ip), vehicle: saline): 115 % of control
- T/C [6]: 90 % of control
- T/C (dose: 50.0 mg/kg/injection, schedule: Q04DX003 (ip), vehicle: saline): 110 % of control
- T/C [7]: 86 % of control
- T/C [8]: 95 % of control
- T/C (dose: 100.0 mg/kg/injection, schedule: Q04DX003 (ip), vehicle: saline): 110 % of control
- T/C (dose: 150.0 mg/kg/injection, schedule: Q04DX003 (ip), vehicle: saline): 110 % of control
- T/C (dose: 200.0 mg/kg/injection, schedule: Q04DX003 (ip), vehicle: saline with Tween-80): 95 % of control
- T/C (dose: 225.0 mg/kg/injection, schedule: Q04DX003 (ip), vehicle: saline): 105 % of control

SMILES: COC(=O)/C(C#N)=C(\C)CCC=C(C)C
- T/C (dose: 25.0 mg/kg/injection, schedule: Q04DX003 (ip), vehicle: saline with Tween-80): 95 % of control
- T/C [2]: 105 % of control
- T/C [8]: 87 % of control

SMILES: COC(=O)c1ccccc1NC(=O)CCl
- T/C [2]: 100 % of control
- T/C [8]: 87 % of control

SMILES: CCC[CH2][Sn]1([CH2]CCC)[O]OC(c2ccc(C)cc2)[O]1 (centres undefined)
- T/C (dose: 0.38 mg/kg/injection, schedule: Q01DX009 (ip), vehicle: saline with Tween-80): 114 % of control
- T/C (dose: 1.5 mg/kg/injection, schedule: Q01DX009 (ip), vehicle: saline with Tween-80): 117 % of control
- T/C (dose: 3.13 mg/kg/injection, schedule: Q01DX009 (ip), vehicle: saline with Tween-80): 123 % of control
- T/C (dose: 5.3 mg/kg/injection, schedule: Q01DX009 (ip), vehicle: saline with Tween-80): 86 % of control

SMILES: C1CCC2(CC1)OCCO2
- T/C (dose: 25.0 mg/kg/injection, schedule: Q01DX009 (ip), vehicle: saline with Tween-80): 87 % of control
- T/C [6]: 97 % of control
- T/C [7]: 100 % of control
- T/C (dose: 200.0 mg/kg/injection, schedule: Q01DX009 (ip), vehicle: saline with Tween-80): 106 % of control

SMILES: OC(c1cc(-c2ccc(C(F)(F)F)cc2)nc(C(F)(F)F)c1)C1CCCCN1 (centres undefined)
- T/C [6]: 108 % of control

SMILES: CC(=O)Oc1cccnc1C(C#N)C(C)=O (centres undefined)
- T/C [3]: 90 % of control
- T/C [4]: 99 % of control
- T/C [5]: 87 % of control
